We go through 18 compounds from patent publication US20260272924A1, “ISOINDOLINE DERIVATIVE, BENZOINDOLE DERIVATIVE AND USE THEREOF” (SHANGHAI HELIOSON PHARMACEUTICAL CO., LTD., priority 2023, published 2026).

Holding throughout (type): cell-based
Test [1] concerns NCI-H929 multiple myeloma cells. Briefly: Cell Titer-GLO (CTG) assay for proliferation of NCI-H929 cells. The conditions noted are these: Homo sapiens, 72 hours. The gist of the method:
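NCI-H929 cells, 5000/well, treated next day with compound from 0.00512 to 400 nM (5-fold steps, duplicates) for 72 h at 37° C. Viability by CellTiter-Glo luminescence, normalised to 0.1% DMSO and medium blank; IC50 and maximal inhibition from nonlinear dose-response regression.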
On the technique in general: In ATP-based viability assays light output follows the ATP content of the culture.

The target of test [2] is T1, IKZF1 (Homo sapiens, UniProt Q13422+Q96SW2).
T1 construct: NCI-H929 cells were inoculated into a 96-well plate at 100,000 cells per well and cultured overnight; endogenous in cells; host or cells: NCI-H929
Briefly: Protein degradation assay (In-Cell Western), IKZF1. To be noted: NCI-H929 cells, 24 hours. As to the method: (§1) NCI-H929 cells were inoculated into a 96-well plate at 100,000 cells per well and cultured overnight. Compounds at concentrations of 1600 nM, 400 nM, 100 nM, 25 nM, 6.25 nM, 1.56 nM, 0.39 nM, and 0.1 nM were dosed with duplicate wells, and the cells were incubated in an incubator at 37° C. for 24 hours. After the incubation, the supernatant was removed by centrifugation, and 150 μL of 4% paraformaldehyde was added. The cells were incubated at room temperature for 20 minutes, then, 200 μL of a washing solution (0.1% TritonX-100, Beyotime; ST1722) was added and incubated at room temperature on a shaker. After repeating the washing four times, 150 μL of a Licor INTERCEPT blocking solution (Lico, Cat No. 927-70001) was added, and the cells were incubated on a shaker at room temperature for 1.5 hours. Antibodies IKZF1 (Cell Signaling; Cat No. 14859S), IKZF3 (Cell Signaling; Cat No. 15103S), GSPT1 (Proteintech, Cat No. 10763-1-AP), CK1a (Thermo; 7117067), and SALL4 (Abcam, ab22675) were diluted with an antibody dilution solution (Intercept Blocking Buffer, LI-COR, 211114) at 1:100 and 50 μL of each diluted primary antibody was added into the 96-well plate. The cells were incubated overnight on a shaker at 4° C. After the primary antibodies were removed and repeated washing was performed with PBST for 4 times, 50 μL of a diluted secondary antibody (Licor, Cat No. 926-68070) was added, and IRDye 800CW and IRDye 680CW were added at 0.5 μL simultaneously. The secondary antibody was sucked away, PBST was added, repeated washing was performed on a shaker at room temperature for 4 times, and a signal intensity was detected using an infrared laser imaging system (Lico, Odyssey-CLx).

Test [3] addresses T2, IKZF3 (Homo sapiens, UniProt Q96SW2+Q9UKT9).
T2 construct: endogenous in cells; host or cells: NCI-H929
Briefly: Protein degradation assay (In-Cell Western), IKZF3. To be noted: NCI-H929 cells, 24 hours. As to the method:
as §1

T2 sequence (Q9UKT9 whole entry): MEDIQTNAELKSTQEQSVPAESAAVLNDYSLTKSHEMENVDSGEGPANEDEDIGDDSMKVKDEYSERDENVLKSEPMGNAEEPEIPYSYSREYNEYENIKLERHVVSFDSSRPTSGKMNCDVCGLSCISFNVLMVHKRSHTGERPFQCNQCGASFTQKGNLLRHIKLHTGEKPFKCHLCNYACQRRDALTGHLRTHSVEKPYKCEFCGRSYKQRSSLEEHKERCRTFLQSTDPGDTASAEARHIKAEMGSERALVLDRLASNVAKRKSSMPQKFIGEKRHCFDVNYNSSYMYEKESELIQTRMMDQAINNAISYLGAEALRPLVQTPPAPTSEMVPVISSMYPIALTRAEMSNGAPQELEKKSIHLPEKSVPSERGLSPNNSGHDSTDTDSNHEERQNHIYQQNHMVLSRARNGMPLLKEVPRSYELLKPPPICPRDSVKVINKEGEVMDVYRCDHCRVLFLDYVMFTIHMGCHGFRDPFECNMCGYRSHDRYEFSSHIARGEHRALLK
T2 sequence (Q96SW2 whole entry): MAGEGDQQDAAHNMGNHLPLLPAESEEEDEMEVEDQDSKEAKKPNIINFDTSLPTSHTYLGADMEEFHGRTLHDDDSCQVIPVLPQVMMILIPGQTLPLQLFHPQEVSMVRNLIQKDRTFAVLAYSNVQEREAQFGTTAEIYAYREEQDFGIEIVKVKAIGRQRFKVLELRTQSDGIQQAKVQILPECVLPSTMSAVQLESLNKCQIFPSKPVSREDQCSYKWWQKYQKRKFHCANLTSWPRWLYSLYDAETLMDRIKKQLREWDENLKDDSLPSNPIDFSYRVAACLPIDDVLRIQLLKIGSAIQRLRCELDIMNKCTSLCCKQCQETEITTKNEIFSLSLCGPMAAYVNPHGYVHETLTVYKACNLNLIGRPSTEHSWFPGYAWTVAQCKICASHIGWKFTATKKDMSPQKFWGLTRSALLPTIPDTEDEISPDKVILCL
T2 sequence (Q16531 whole entry partner): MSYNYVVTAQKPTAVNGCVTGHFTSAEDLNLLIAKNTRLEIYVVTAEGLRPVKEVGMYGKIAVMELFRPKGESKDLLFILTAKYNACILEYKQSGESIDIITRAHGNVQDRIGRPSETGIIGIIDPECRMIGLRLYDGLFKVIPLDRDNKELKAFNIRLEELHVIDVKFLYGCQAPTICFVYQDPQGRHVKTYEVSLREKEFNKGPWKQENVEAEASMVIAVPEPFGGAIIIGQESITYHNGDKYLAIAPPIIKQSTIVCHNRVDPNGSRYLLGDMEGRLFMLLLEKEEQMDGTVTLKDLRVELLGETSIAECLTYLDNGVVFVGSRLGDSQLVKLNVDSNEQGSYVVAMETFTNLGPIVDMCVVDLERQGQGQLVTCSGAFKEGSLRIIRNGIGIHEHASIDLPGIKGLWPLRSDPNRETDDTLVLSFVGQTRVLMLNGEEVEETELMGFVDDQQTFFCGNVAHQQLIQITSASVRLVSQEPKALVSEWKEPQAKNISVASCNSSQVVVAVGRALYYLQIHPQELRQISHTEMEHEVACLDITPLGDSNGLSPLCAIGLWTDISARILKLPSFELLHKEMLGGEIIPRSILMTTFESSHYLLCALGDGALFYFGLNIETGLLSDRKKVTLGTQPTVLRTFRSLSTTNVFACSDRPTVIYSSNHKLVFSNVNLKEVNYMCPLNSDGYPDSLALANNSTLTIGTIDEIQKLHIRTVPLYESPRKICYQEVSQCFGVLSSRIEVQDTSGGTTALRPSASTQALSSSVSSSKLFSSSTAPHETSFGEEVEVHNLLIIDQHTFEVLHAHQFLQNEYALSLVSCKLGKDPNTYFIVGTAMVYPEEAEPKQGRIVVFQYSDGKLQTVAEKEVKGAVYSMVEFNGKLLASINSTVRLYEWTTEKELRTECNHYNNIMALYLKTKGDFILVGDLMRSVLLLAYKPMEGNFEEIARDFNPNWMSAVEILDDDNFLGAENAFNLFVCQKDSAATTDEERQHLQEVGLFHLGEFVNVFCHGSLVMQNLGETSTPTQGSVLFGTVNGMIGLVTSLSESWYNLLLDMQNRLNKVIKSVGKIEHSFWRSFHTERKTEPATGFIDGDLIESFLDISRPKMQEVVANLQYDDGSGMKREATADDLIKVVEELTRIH
T1 sequence (Q13422 whole entry): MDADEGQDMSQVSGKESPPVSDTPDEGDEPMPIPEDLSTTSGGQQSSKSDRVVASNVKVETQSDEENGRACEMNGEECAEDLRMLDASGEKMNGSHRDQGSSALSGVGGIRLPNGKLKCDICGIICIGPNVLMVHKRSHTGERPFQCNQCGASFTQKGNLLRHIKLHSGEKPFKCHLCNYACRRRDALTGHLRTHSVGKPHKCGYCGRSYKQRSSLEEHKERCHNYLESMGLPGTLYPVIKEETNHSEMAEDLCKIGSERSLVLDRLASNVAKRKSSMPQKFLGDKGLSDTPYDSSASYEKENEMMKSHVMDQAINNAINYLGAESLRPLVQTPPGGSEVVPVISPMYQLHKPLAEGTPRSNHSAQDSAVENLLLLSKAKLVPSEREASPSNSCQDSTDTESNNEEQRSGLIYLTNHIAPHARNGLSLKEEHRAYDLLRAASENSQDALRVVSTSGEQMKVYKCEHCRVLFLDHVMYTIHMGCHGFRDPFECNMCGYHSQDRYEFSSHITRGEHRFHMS
T1 sequence (Q96SW2 whole entry): as the sequence (Q96SW2 whole entry) above
T1 sequence (Q16531 whole entry partner): as the sequence (Q16531 whole entry partner) above

As for `O=C1CCC(N2C(=O)c3cccc4c(Cc5ccc(CN6CCN(C(=O)c7cccc(-n8ccnc8)n7)CC6)cc5)ccc2c34)C(=O)N1` (centres unmarked) [Example 4, 3-(6-(4-((4-(6-(1H-imidazol-1-yl)pyridin-2-carbonyl)piperazin-1-yl)methyl)benzyl)-2-oxobenzo[cd]indol-1(2H)-yl)piperidin-2,6-dione], in test [1], the IC50 was found to be 30 pM. For the same compound, in test [2], half-maximal degradation (DC50) was put at 380 pM and the Dmax is 73.6%. In test [3], this compound yielded a 50% degradation concentration (DC50) of 190 pM and a Dmax of 70.3%.

The compound `Cc1nc(N2CCN(Cc3ccc(Cc4ccc5c6c(cccc46)C(=O)N5[C@@H]4CCC(=O)NC4=O)cc3)CC2)cc(-n2cnc(C(F)(F)F)c2)n1` [Example 31, (R)-3-(6-(4-((4-(2-methyl-6-(4-(trifluoromethyl)-1H-imidazol-1-yl)pyrimidin-4-yl)piperazin-1-yl)methyl)benzyl)-2-oxobenzo[cd]indol-1(2H)-yl)piperidin-2,6-dione] returned an IC50 in test [1] of 10 pM. In test [2], this compound displayed a half-maximal degradation concentration (DC50) of 340 pM and a Dmax of 77%. In test [3], this compound registered a DC50 of 160 pM and a Dmax of 75%.

For `O=C1CC[C@H](N2Cc3c(OCc4ccc(CN5CCN(c6ccnc(-n7ccnc7)n6)CC5)cc4)cccc3C2=O)C(=O)N1` [Example 1, (S)-3-(4-((4-((4-(2-(1H-imidazol-1-yl)pyrimidin-4-yl)piperazin-1-yl)methyl)benzyl)oxy)-1-oxoisoindolin-2-yl)piperidin-2,6-dione], in test [1], the IC50 was determined as 30 pM. Besides, in test [2], the 50% degradation concentration (DC50) was determined as 310 pM and the maximal degradation (Dmax) was 75.8%. In addition, in test [3], half-maximal degradation (DC50) was put at 120 pM and the greatest degradation seen (Dmax) was determined as 71.4%.

The compound `O=C1CCC(N2C(=O)c3cccc4c(Cc5ccc(CN6CCN(c7ccnc(-n8ccnc8)n7)CC6)cc5)ccc2c34)C(=O)N1` (centres unmarked) [Example 3, 3-(6-(4-((4-(2-(1H-imidazol-1-yl)pyrimidin-4-yl)piperazin-1-yl)methyl)benzyl)-2-oxobenzo[cd]indol-1(2H)-yl)piperidin-2,6-dione] yielded an IC50 in test [1] of 3 pM. Further, in test [2], the DC50 came out at 81 pM and the greatest degradation seen (Dmax) worked out at 73.6%. In test [3], this compound registered a DC50 of 50 pM and a Dmax of 76.6%.

On to `N#Cc1cn(-c2nc(N3CCN(Cc4ccc(Cc5ccc6c7c(cccc57)C(=O)N6C5CCC(=O)NC5=O)cc4)CC3)cc(C(F)(F)F)n2)cn1` (centres unmarked) [Example 75, 3-(6-(4-((4-(2-(4-cyano-1H-imidazol-1-yl)-6-(trifluoromethyl)pyrimidin-4-yl)piperazin-1-yl)methyl)benzyl)-2-oxobenzo[cd]indol-1(2H)-yl)piperidin-2,6-dione], for which the IC50 in test [1] turned out to be 20 pM.

With `Cc1nc(N2CCN(Cc3ccc(Cc4ccc5c6c(cccc46)C(=O)N5C4CCC(=O)NC4=O)cc3)CC2)cc(-n2cnc(C(F)(F)F)c2)n1` (centres unmarked) [Example 29, 3-(6-(4-((4-(2-methyl-6-(4-(trifluoromethyl)-1H-imidazol-1-yl)pyrimidin-4-yl)piperazin-1-yl)methyl)benzyl)-2-oxobenzo[cd]indol-1(2H)-yl)piperidin-2,6-dione], in test [1], 20 pM corresponded to half-maximal inhibition (IC50).

The compound `O=C1CCC(N2C(=O)c3cccc4c(Cc5ccc(CN6CCN(c7ccnc(-n8cnc(Cl)c8)n7)CC6)cc5)ccc2c34)C(=O)N1` (centres unmarked) [Example 43, 3-(6-(4-((4-(2-(4-chloro-1H-imidazol-1-yl)pyrimidin-4-yl)piperazin-1-yl)methyl)benzyl)-2-oxobenzo[cd]indol-1(2H)-yl)piperidin-2,6-dione] displayed an IC50 in test [1] of 20 pM.

Compound `O=C1CCC(N2C(=O)c3cccc4c(Cc5ccc(CN6CCN(c7nc(-c8cncs8)ncc7F)CC6)cc5)ccc2c34)C(=O)N1` (centres unmarked) [Example 60, 3-(6-(4-((4-(5-fluoro-2-(thiazol-5-yl)pyrimidin-4-yl)piperazin-1-yl)methyl)benzyl)-2-oxobenzo[cd]indol-1(2H)-yl)piperidin-2,6-dione] showed an IC50 in test [1] of 30 pM.

In the case of `Cc1nc(N2CCN(Cc3ccc(COc4cccc5c4CN([C@H]4CCC(=O)NC4=O)C5=O)cc3)CC2)cc(-n2cnc(C(F)(F)F)c2)n1` [Example 72, (S)-3-(4-((4-((4-(2-methyl-6-(4-(trifluoromethyl)-1H-imidazol-1-yl)pyrimidin-4-yl)piperazin-1-yl)methyl)benzyl)oxy)-1-oxoisoindolin-2-yl)piperidin-2,6-dione], half-maximal inhibition in test [1] (IC50) required 100 pM.

In test [1], `Cc1nc(N2CCN(Cc3ccc(Cc4ccc5c6c(cccc46)C(=O)N5C4CCC(=O)NC4=O)cc3)CC2)cc(-n2cnc(C#N)c2)n1` (centres unmarked) [Example 51, 3-(6-(4-((4-(6-(-4-cyano-1H-imidazol-1-yl)-2-methylpyrimidin-4-yl)piperazin-1-yl)methyl)benzyl)-2-oxobenzo[cd]indol-1(2H)-yl)piperidin-2,6-dione] yielded an IC50 of 10 pM.

On to `O=C1CCC(N2C(=O)c3cccc4c(Cc5ccc(CN6CCN(CC7CCN(c8cccc(-n9ccnc9)n8)CC7)CC6)cc5)ccc2c34)C(=O)N1` (centres unmarked) [Example 8, 3-(6-(4-((4-((1-(6-(1H-imidazol-1-yl)pyridin-2-yl)piperidin-4-yl)methyl)piperazin-1-yl)methyl)benzyl)-2-oxobenzo[cd]indol-1(2H)-yl)piperidin-2,6-dione], for which the concentration for half-maximal inhibition (IC50) in test [1] worked out at 40 pM.

Turning to `O=C1CC[C@H](N2Cc3c(OCc4ccc(CN5CCN(c6ccnc(-c7cncs7)n6)CC5)cc4)cccc3C2=O)C(=O)N1` [Example 80, (S)-3-(1-oxo-4-((4-((4-(2-(thiazol-5-vi)pyrimidin-4-yl)piperazin-1-yl)methyl)benzyl)oxy)isoindolin-2-yl)piperidin-2,6-dione], it took 400 pM to reach half-maximal inhibition in test [1] (IC50).

For the compound `O=C1CCC(N2C(=O)c3cccc4c(Cc5ccc(CN6CCN(c7cccc(-n8cnc(C(F)(F)F)n8)n7)CC6)cc5)ccc2c34)C(=O)N1` (centres unmarked) [Example 62, 3-(2-oxo-6-(4-((4-(6-(3-(trifluoromethyl)-1H-1,2,4-triazol-1-yl)pyridin-2-yl)piperazin-1-yl)methyl)benzyl)benzo[cd]indol-1(2H)-yl)piperidin-2,6-dione], the IC50 in test [1] is 70 pM.

Compound `O=C1CCC(N2C(=O)c3cccc4c(Cc5ccc(CN6CCN(c7cc(C(F)(F)F)nc(-n8cnc(Cl)c8)n7)CC6)cc5)ccc2c34)C(=O)N1` (centres unmarked) [Example 74, 3-(6-(4-((4-(2-(4-chloro-1H-imidazol-1-yl)-6-(trifluoromethyl)pyrimidin-4-yl)piperazin-1-yl)methyl)benzyl)-2-oxobenzo[cd]indol-1(2H)-yl)piperidin-2,6-dione] gave a 50% inhibitory concentration (IC50) in test [1] of 100 pM.

In turn, `O=C1CCC(N2C(=O)c3cccc4c(Cc5ccc(CN6CCC(O[C@H]7CC[C@@H](NC(=O)c8cccc(-n9ccnc9)n8)CC7)CC6)cc5)ccc2c34)C(=O)N1` (some centres unmarked) [Example 27, N-((1s,4s)-4-((1-(4-((1-(2,6-dioxopiperidin-3-yl)-2-oxo-1,2-dihydrobenzo[cd]indol-6-yl)methyl)benzyl)piperidin-4-yl)oxy)cyclohexyl)-6-(1H-imidazol-1-yl)pyridin-2-carboxamide] returned a half-inhibitory concentration (IC50) in test [1] of 100 pM.

As to `O=C1CCC(N2C(=O)c3cccc4c(Cc5ccc(CN6CC(CN7CCN(c8cccc(-n9ccnc9)n8)CC7)C6)cc5)ccc2c34)C(=O)N1` (centres unmarked) [Example 55, 3-(6-(4-((3-((4-(6-(1H-imidazol-1-yl)pyridin-2-yl)piperazin-1-yl)methyl)azetidin-1-yl)methyl)benzyl)-2-oxobenzo[cd]indol-1(2H)-yl)piperidin-2,6-dione], half-maximal inhibition in test [1] (IC50) required 200 pM.

As to `O=C1CCC(N2C(=O)c3cccc4c(Cc5ccc(CN6CCN(C(=O)c7ccnc(-n8ccnc8)n7)CC6)cc5)ccc2c34)C(=O)N1` (centres unmarked) [Example 5, 3-(6-(4-((4-(2-(1H-imidazol-1-yl)pyrimidin-4-carbonyl)piperazin-1-yl)methyl)benzyl)-2-oxobenzo[cd]indol-1(2H)-yl)piperidin-2,6-dione], the IC50 in test [1] was 60 pM. For the same compound, in test [2], half-maximal degradation (DC50) was put at 230 pM and the Dmax came out at 68.4%. Further, in test [3], the DC50 came out at 120 pM and the Dmax came out at 73.8%.

`Cc1nc(N2CCN(Cc3ccc(Cc4ccc5c6c(cccc46)C(=O)N5[C@H]4CCC(=O)NC4=O)cc3)CC2)cc(-n2cnc(C)n2)n1` [Example 46, (S)-3-(6-(4-((4-(2-methyl-6-(3-methyl-1H-1,2,4-triazol-1-yl)pyrimidin-4-yl)piperazin-1-yl)methyl)benzyl)-2-oxobenzo[cd]indol-1(2H)-yl)piperidin-2,6-dione] registered an IC50 in test [1] of 10 pM.

The IC50 is the concentration that inhibits the measured activity by half. A word on the DC50: it is the concentration giving 50% degradation. For orientation: Dmax means the largest share of the target that was removed. A low value points to a partial loss of target.
